# Reference: patent publication US20110172147A1, “NEUROPEPTIDE-2 RECEPTOR (Y-2R) AGONISTS” (priority 2009, published 2011)
# Experiments:
# Type in all cases: cell-based
# Y4R = Y4R (Homo sapiens, UniProt P50391); test: CaFlux Assay (FLIPR), Y4R
# hNPY2R [1] = biological target: T1, hNPY2R (Homo sapiens, UniProt P49146); test: CaFlux Assay (FLIPR), Y2R; set-up: expressed in transfected cells; host or cells: HEK-293 stably transfected with G protein chimera Gαqi9
# T1 sequence (P49146 1-381): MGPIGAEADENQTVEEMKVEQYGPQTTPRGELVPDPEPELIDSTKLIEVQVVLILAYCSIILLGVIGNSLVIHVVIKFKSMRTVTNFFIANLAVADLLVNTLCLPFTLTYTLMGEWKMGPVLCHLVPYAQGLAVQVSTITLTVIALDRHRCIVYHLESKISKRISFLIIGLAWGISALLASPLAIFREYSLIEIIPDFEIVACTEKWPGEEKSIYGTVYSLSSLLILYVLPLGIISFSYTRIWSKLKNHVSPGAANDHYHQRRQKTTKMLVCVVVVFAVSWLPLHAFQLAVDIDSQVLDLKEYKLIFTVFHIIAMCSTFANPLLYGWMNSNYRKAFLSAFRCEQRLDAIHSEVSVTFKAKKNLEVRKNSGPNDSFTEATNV
# Description: HEK-293 cells were stably transfected with the G protein chimera Gαqi9 and the hygromycin-B resistance gene were further transfected with the human NPY2 receptor and G418 antibiotic selection. Following selection in both hygromycin-B and G418, individual clones were assayed for their response to PYY. The transfected cells were cultured in DMEM medium supplemented with 10% fetal bovine serum, 50 μg/mL hygromycin-B, 2 mM glutamine, 100 U/mL penicillin, 100 μg/mL streptomycin and 250 μg/mL G418. Cells are harvested with trypsin-EDTA and counted using ViaCount reagent. The cell suspension volume is adjusted to 4.8×10^5 cells/mL with complete growth media. Aliquots of 25 μL are dispensed into 384 well Poly-D Lysine coated black/clear microplates (Falcon) and the microplates were placed in a 37° C. CO2 incubator overnight. Loading Buffer (Calcium-3 Assay Kit, Molecular Devices) was prepared by dissolving the contents of one vial (Express Kit) into […] Hank's Balanced Salt Solution containing 20 mM HEPES and 5 mM probenecid. Aliquots of 25 μL of diluted dye were dispensed into the cell plates and the plates are then incubated for 1 hour at 37° C. During the incubation, test compounds were prepared at 3.5× the desired concentration in HBSS (20 mM HEPES)/0.05% BSA/1% DMSO and transferred to a 384-well plate for use on FLIPR. After incubation, both the cell and compound plates were brought to the FLIPR and 20 μL of the diluted compounds were transferred to the cell plates by the FLIPR. During the assay, fluorescence readings were taken simultaneously from all 384 wells of the cell plate every 1.5 seconds. Five readings were taken to establish a stable baseline, and then 20 μL of sample was rapidly (30 μL/sec) and simultaneously added to each well of the cell plate. The fluorescence was continuously monitored before, during and after sample addition for a total elapsed time of 100 seconds. Responses (increase in peak fluorescence) in each well following addition were determined. The initial fluorescence reading from each well, prior to ligand stimulation, was used as a zero baseline value for the data from that well. The responses are expressed as % of maximal response of the positive control.
# hNPY2R [2] = biological target: T1, hNPY2R; test: cAMP Agonist Assay, HEK293/hNPY2R; set-up: expressed in transfected cells; host or cells: HEK293/hNPY2R (G418 selection)
# Description: In this example, the following materials were used: 384-well plate; Tropix cAMP-Screen Kit; cAMP ELISA System (Applied Biosystems, cat. #T1505; CS 20000); Forskolin (Calbiochem cat. # 344270); cells: HEK293/hNPY2R; growth medium: Dulbecco's modified eagle medium (D-MEM, Gibco); 10% Fetal bovine serum (FBS, Gibco), heat-inactivated; 1% Penicillin/Streptomycin (Pen 10000 unit/mL: Strep […], Gibco); […] G418 (Geneticin, Gibco cat. # 11811-031); and plating medium: DMEM/F12 w/o phenol red (Gibco); 10% FBS (Gibco, cat. # 10082-147), heat-inactivated; 1% Penicillin/Streptomycin (Gibco, cat. # 15140-122); […] G418 (Geneticin, Gibco, cat. # 11811-031).
# On the first day, medium was discarded, and the monolayer cells were washed with 10 mL PBS per flask (T225). After decanting with PBS, 5 mL VERSENE (Gibco, cat #1504006) was used to dislodge the cells (5 min @37 C). The flask was gently tapped and the cell suspension was pooled. Each flask was rinsed with 10 mL plating medium and centrifuged at 1000 rpm for 5 min. The suspension was pooled and counted. The suspension was resuspended in plating medium at a density of 2.0×10^5 cells/mL for HEK293/hNPY2R. 50 microliters of cells (HEK293/hNPY2R-10,000 cells/well) were transferred into the 384-well plate using Multi-drop dispenser. The plates were incubated at 37° C. overnight. On the second day, the cells were checked for 75-85% confluence. The media and reagents were allowed to come to room temperature. Before the dilutions were prepared, the stock solution of stimulating compound in dimethyl sulphoxide (DMSO, Sigma, cat #D2650) was allowed to warm up to 32 C for 5-10 min. The dilutions were prepared in DMEM/F12 with 0.5 mM 3-Isobutyl-1-methylxanthine (IBMX, Calbiochem, cat #410957) and 0.5 mg/mL BSA. The final DMSO concentration in the stimulation medium was 1.1% with Forskolin concentration of 5 μM. The cell medium was tapped off with a gentle inversion of the cell plate on a paper towel. 50 μL of stimulation medium was placed per well (each concentration done in four replicates). The plates were incubated at room temperature for 30 min, and the cells were checked under a microscope for toxicity. After 30 minutes of treatment, the stimulation media was discarded and […] of Assay Lysis Buffer (provided in the Tropix kit) was added. The plates were incubated for 45 min @ 37° C. 20 μL of the lysate was transferred from stimulation plates into the pre-coated antibody plates (384-well) from the Tropix kit. 10 μL of AP conjugate and 20 μL of anti-cAMP antibody was added. The plates were incubated at room temperature while shaking for 1 hour. The plates were then washed 5 times with Wash Buffer, 70 μL per well for each wash. The plates were tapped to dry. 30 μL/well of CSPD/Saphire-II RTU substrate/enhancer solution was added and incubated for 45 min @ RT (shake). Signal for 1 sec/well in a Luminometer. (VICTOR-V) was measured.
# Y5R = biological target: T2, Y5R (Homo sapiens, UniProt Q15761); test: CaFlux Assay (FLIPR), Y5R
# T2 sequence (Q15761 1-445): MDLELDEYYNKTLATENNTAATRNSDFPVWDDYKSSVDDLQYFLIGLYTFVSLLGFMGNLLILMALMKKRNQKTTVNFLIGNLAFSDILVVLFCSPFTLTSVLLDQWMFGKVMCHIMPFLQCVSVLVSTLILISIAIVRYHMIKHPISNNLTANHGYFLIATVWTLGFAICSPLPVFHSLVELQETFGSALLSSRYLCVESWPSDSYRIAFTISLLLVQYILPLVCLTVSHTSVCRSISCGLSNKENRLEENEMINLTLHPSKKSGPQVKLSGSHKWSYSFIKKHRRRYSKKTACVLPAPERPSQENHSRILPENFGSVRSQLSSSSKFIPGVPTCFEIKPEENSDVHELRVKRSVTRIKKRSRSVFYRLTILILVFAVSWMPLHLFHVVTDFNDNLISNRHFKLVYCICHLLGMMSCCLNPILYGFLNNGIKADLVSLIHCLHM
# Y1R = biological target: T3, Y1R (Homo sapiens, UniProt P25929); test: CaFlux Assay (FLIPR), Y1R
# T3 sequence (P25929 1-384): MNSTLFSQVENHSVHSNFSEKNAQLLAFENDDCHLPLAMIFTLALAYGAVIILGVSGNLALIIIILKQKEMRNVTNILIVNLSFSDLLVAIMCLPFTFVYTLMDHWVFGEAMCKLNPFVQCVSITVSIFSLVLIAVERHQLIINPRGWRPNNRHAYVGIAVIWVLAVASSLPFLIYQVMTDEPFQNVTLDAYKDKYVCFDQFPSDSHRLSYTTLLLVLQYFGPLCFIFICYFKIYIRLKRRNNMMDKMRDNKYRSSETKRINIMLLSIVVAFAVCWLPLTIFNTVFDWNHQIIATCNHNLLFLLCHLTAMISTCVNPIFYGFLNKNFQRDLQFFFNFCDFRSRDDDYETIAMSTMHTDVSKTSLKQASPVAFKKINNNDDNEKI
# Y4R, sequence (P50391 whole entry): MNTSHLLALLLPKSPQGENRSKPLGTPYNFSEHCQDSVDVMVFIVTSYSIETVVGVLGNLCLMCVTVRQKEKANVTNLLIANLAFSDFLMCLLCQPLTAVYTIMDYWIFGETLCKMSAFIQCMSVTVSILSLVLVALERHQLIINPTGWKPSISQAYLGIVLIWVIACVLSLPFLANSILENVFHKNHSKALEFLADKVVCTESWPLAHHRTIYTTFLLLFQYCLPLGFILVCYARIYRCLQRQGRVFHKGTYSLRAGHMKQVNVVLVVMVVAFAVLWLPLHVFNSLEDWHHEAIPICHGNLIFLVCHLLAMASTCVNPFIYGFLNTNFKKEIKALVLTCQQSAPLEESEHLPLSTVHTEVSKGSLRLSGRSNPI
SMILES,EC50 (Y4R),EC50 (hNPY2R [1]),EC50 (hNPY2R [2]),EC50 (Y5R),EC50 (Y1R),Y5R FLIPR agonist character (partial agonist mark) (Y5R; FLIPR)
CCCCCCCCCCCCCCCC(=O)NCCCCCC(=O)NCCCC[C@H](NC(=O)[C@@H](NC(=O)COCCOCCOCCOCCOCCOC)[C@@H](C)CC)C(=O)N1CCN(c2ccc3ncn(CC(=O)N[C@@H](CCCNC(=N)N)C(=O)N[C@@H](Cc4c[nH]cn4)C(=O)N[C@@H](Cc4ccc(O)cc4)C(=O)N[C@@H](CC(C)C)C(=O)N[C@@H](CC(N)=O)C(=O)N[C@@H](Cc4c[nH]c5ccccc45)C(=O)N[C@H](C(=O)N[C@H](C(=O)N[C@@H](CCCNC(=N)N)C(=O)N[C@@H](CCC(N)=O)C(=O)N(C)[C@@H](CCCNC(=N)N)C(=O)N[C@@H](Cc4ccc(O)cc4)C(N)=O)[C@@H](C)O)C(C)C)c(=O)c3c2)CC1 [Example 7],> 5000 nM,0.044 nM,0.16 nM,1130 nM,> 5000 nM,–
CCCCCCCCCCCCCCCC(=O)NCCCCCC(=O)NCCCC[C@H](NC(=O)[C@@H](NC(=O)CCOCCOCCOCCOCCOCCOCCOCCOC)[C@@H](C)CC)C(=O)N1CCN(c2ccc3ncn(CC(=O)N[C@@H](CCCNC(=N)N)C(=O)N[C@@H](Cc4c[nH]cn4)C(=O)N[C@@H](Cc4ccc(O)cc4)C(=O)N[C@@H](CC(C)C)C(=O)N[C@@H](CC(N)=O)C(=O)N[C@@H](Cc4c[nH]c5ccccc45)C(=O)N[C@H](C(=O)N[C@H](C(=O)N[C@@H](CCCNC(=N)N)C(=O)N[C@@H](CCC(N)=O)C(=O)N(C)[C@@H](CCCNC(=N)N)C(=O)N[C@@H](Cc4ccc(O)cc4)C(N)=O)[C@@H](C)O)C(C)C)c(=O)c3c2)CC1 [Example 8],> 5000 nM,0.033 nM,0.17 nM,1760 nM,> 5000 nM,–
CCCCCCCCCCCCCCCC(=O)NCCCCCC(=O)NCCCC[C@H](NC(=O)[C@@H](NC(=O)CCOCCOCCOCCOCCOCCOCCOCCOCCOCCOCCOCCOC)[C@@H](C)CC)C(=O)N1CCN(c2ccc3ncn(CC(=O)N[C@@H](CCCNC(=N)N)C(=O)N[C@@H](Cc4c[nH]cn4)C(=O)N[C@@H](Cc4ccc(O)cc4)C(=O)N[C@@H](CC(C)C)C(=O)N[C@@H](CC(N)=O)C(=O)N[C@@H](Cc4c[nH]c5ccccc45)C(=O)N[C@H](C(=O)N[C@H](C(=O)N[C@@H](CCCNC(=N)N)C(=O)N[C@@H](CCC(N)=O)C(=O)N(C)[C@@H](CCCNC(=N)N)C(=O)N[C@@H](Cc4ccc(O)cc4)C(N)=O)[C@@H](C)O)C(C)C)c(=O)c3c2)CC1 [Example 9],> 5000 nM,0.025 nM,0.08 nM,1030 nM,> 5000 nM,–
CCCCCCCCCCCCCCCC(=O)NCCCCCC(=O)NCCCC[C@H](NC(=O)[C@@H](NC(=O)CCOCCOCCOCCOCCOCCOCCOCCOCCOCCOCCOCCOCCOCCOCCOCCOC)[C@@H](C)CC)C(=O)N1CCN(c2ccc3ncn(CC(=O)N[C@@H](CCCNC(=N)N)C(=O)N[C@@H](Cc4c[nH]cn4)C(=O)N[C@@H](Cc4ccc(O)cc4)C(=O)N[C@@H](CC(C)C)C(=O)N[C@@H](CC(N)=O)C(=O)N[C@@H](Cc4c[nH]c5ccccc45)C(=O)N[C@H](C(=O)N[C@H](C(=O)N[C@@H](CCCNC(=N)N)C(=O)N[C@@H](CCC(N)=O)C(=O)N(C)[C@@H](CCCNC(=N)N)C(=O)N[C@@H](Cc4ccc(O)cc4)C(N)=O)[C@@H](C)O)C(C)C)c(=O)c3c2)CC1 [Example 10],> 5000 nM,0.04 nM,0.13 nM,816 nM,> 5000 nM,–
CCCCCCCCCCCCCCCCCCCC(=O)N[C@@H](CCC(=O)N[C@@H](CCC(=O)NCCCC[C@H](NC(=O)[C@@H](NC(=O)CCOCCOCCOCCOCCOCCOCCOCCOCCOCCOCCOCCOC)[C@@H](C)CC)C(=O)N1CCN(c2ccc3ncn(CC(=O)N[C@@H](CCCNC(=N)N)C(=O)N[C@@H](Cc4c[nH]cn4)C(=O)N[C@@H](Cc4ccc(O)cc4)C(=O)N[C@@H](CC(C)C)C(=O)N[C@@H](CC(N)=O)C(=O)N[C@@H](Cc4c[nH]c5ccccc45)C(=O)N[C@H](C(=O)N[C@H](C(=O)N[C@@H](CCCNC(=N)N)C(=O)N[C@@H](CCC(N)=O)C(=O)N(C)[C@@H](CCCNC(=N)N)C(=O)N[C@@H](Cc4ccc(O)cc4)C(N)=O)[C@@H](C)O)C(C)C)c(=O)c3c2)CC1)C(=O)O)C(=O)O [Example 24],–,–,–,–,–,P.A
